Assay results taken from patent US8809340B2, “Crystalline form” (Novartis AG, priority 2012, dated 2014).
Structures can show the parent of a compound that is named as a salt.

Assays:
[1] = Solid-form transformation upon drying; assay type: physicochemical; details: transient solvate form in suspension during the crystallization of Form A
[2] = Relative thermodynamic stability of polymorphic forms; assay type: physicochemical; details: polymorph comparison, succinate salt

SMILES	form stability / transformation upon drying [1]	thermodynamic stability relative to Form A [2]
CCCN(CCC)C(=O)COC(=O)CCNS(=O)(=O)c1cccc(C(=O)N2CCC3(CC2)CN/C(=N\C(=O)c2nc(Cl)c(N)nc2N)N3)c1 [Form B, 3-(3-{2-[(E)-3,5-Diamino-6-chloro-pyrazine-2-carbonylimino]-1,3,8-triaza-spiro[4.5]decane-8-carbonyl}-benzenesulfonylamino)-propionic acid dipropylcarbamoylmethyl ester succinate salt]	transforms into Form A upon drying	
CCCN(CCC)C(=O)COC(=O)CCNS(=O)(=O)c1cccc(C(=O)N2CCC3(CC2)CN/C(=N\C(=O)c2nc(Cl)c(N)nc2N)N3)c1 [Form C, 3-(3-{2-[(E)-3,5-Diamino-6-chloro-pyrazine-2-carbonylimino]-1,3,8-triaza-spiro[4.5]decane-8-carbonyl}-benzenesulfonylamino)-propionic acid dipropylcarbamoylmethyl ester succinate salt]		thermodynamically more stable than Form A
